6 compounds from patent publication US10272124B2, “Use of helminthostachys, ugonins or flavone-based compounds for the treatment or prevention of metabolic diseases” (National Research Institute of Chinese Medicine, Ministry …, priority 2016, dated 2019) can be followed below.

The subject of the first experiment is Akt. The experiment is described as follows: Akt kinase activity assay (GSK3-α phosphorylation, Western blotting). The experiment is classed as biochemical.
Conditions: not given
On the procedure:
Akt kinase activity was determined by commercial Akt assay kit according to the manufacturer's directions. Phosphorylation states of GSK3-α were determined by Western blotting, so as to evaluate the effect of various ugonins on Akt activity.
(In general: A western blot detects proteins with antibodies after separation by electrophoresis.)
For the compound `C=C1CCCC(C)(C)[C@H]1Cc1c(O)cc2oc(-c3ccc(O)c(O)c3)cc(=O)c2c1O` [ugonin J, (R)-2-(3,4-dihydroxyphenyl)-6-((2,2-dimethyl-6-methylenecyclohexyl)methyl)-5,7-dihydroxy-4H-chromen-4-one], the Akt activity entry was “promote Akt activity”.

For the next experiment, the system named is BRIN-BD11 cells. The experiment is described as follows: Glucose stimulated insulin secretion (HTRF insulin assay). The experiment is classed as cell-based, rat. The following applies: below the concentration of 20 μM; 16.7 mM glucose, 20 min. On the procedure:
The clonal rat pancreatic β-cell line (BRIN-BD11) was grown as a monolayer in culture dishes at 37° C. under 5% CO2/air with 90% humidity. Cells were maintained in RPMI 1640 medium containing 10% foetal bovine serum and 5% penicillin and streptomycin mixture.
BRIN-BD11 cells were plated on 24-well plates (0.5×10^5 cells/well) and incubated for 48 hours with media containing 5.6 mM glucose. Before performing acute insulin secretion test, cells were pre-incubated with 1.1 mM glucose in Krebs-Ringer Bicarbonate Buffer for 45 min at 37° C. Then, cells were challenged with vehicle (DMSO) or various ugonins in 16.7 mM glucose in Krebs-Ringer Bicarbonate Buffer for 20 min. The media were collected for insulin determination. Insulin concentrations were quantified by the Homogeneous Time-Resolved Fluorescence (HTRF) insulin assay and normalized to a million of total cell numbers.
Data were presented as mean±standard error of the mean. Statistical analyses were performed using GraphPad Prism (GraphPad, CA, USA). Single parameter-based comparisons were obtained from the unpaired student's t-test. P values less than 0.05 and 0.01 were considered to be significant.
In general terms: TR-FRET usually uses a lanthanide donor and a delayed reading to cut background.
For `COc1c(-c2ccc(O)cc2)oc2c3c(cc(O)c2c1=O)OC(C)C3(C)C` (stereo not shown) [ugonin C, 5-hydroxy-2-(4-hydroxyphenyl)-3-methoxy-8,9,9-trimethyl-8,9-dihydro-4H-furo[2,3-h]chromen-4-one], the “insulin secretion of BRIN-BD11 cells” value is “significantly enhance”.
As to `CC1Oc2cc(O)c3c(=O)c(O)c(-c4ccc(O)cc4)oc3c2C1(C)C` (stereo not shown) [ugonin F, 3,5-dihydroxy-2-(4-hydroxyphenyl)-8,9,9-trimethyl-8,9-dihydro-4H-furo[2,3-h]chromen-4-one], the “insulin secretion of BRIN-BD11 cells” value is “significantly enhance”.
For `C=C1CCCC(C)(C)[C@H]1Cc1c(O)cc2oc(-c3ccc(O)c(O)c3)cc(=O)c2c1O` [ugonin J, (R)-2-(3,4-dihydroxyphenyl)-6-((2,2-dimethyl-6-methylenecyclohexyl)methyl)-5,7-dihydroxy-4H-chromen-4-one], the “insulin secretion of BRIN-BD11 cells” value is reported as “significantly enhance”.
On the same count and under the same terms, the entry for `C=C1CCCC(C)(C)[C@H]1Cc1c(OC)cc2oc(-c3ccc(O)c(O)c3)cc(=O)c2c1O` [ugonin K, (R)-2-(3,4-dihydroxyphenyl)-6-((2,2-dimethyl-6-methylenecyclohexyl)methyl)-5-hydroxy-7-methoxy-4H-chromen-4-one] is “significantly enhance”; for `CC1=CCCC(C)(C)C1Cc1c(O)c(O)cc2oc3c(=O)c4c(O)cc(O)cc4oc3c12` (stereo not shown) [ugonin M, 1,3,7,8-tetrahydroxy-6-((2,6,6-trimethylcyclohex-2-en-1-yl)methyl)-11H-benzofuro[3,2-b]chromen-11-one] it is “significantly enhance”.
For the compound `CC1Oc2cc3oc(-c4ccc(O)c(O)c4)cc(=O)c3c(O)c2C1(C)C` (stereo not shown) [ugonin T, 7-(3,4-dihydroxyphenyl)-4-hydroxy-2,3,3-trimethyl-2,3-dihydro-5H-furo[3,2-g]chromen-5-one], the “insulin secretion of BRIN-BD11 cells” value is “significantly enhance”.
